The results in this text go back to patent US20180015180A1, “SHORT AND D-AMINO ACID-CONTAINING POLYPEPTIDES FOR THERAPEUTIC CONJUGATES AND USES THEREOF” (AngioChem Inc., priority 2010, published 2018).

What is called half-life is the time in which the quantity being followed falls by half.

The subject of one series is pepsin. Briefly: Stability of oral formulations of Angiopep peptides in the presence of pepsin. The format is in vitro ADME. Particulars: pepsin (isolated enzyme); 1 mg/mL peptide; 1 mg/25 mL pepsin (diluted 41 times, pH=1.4); 37° C. On the procedure:
The stability of oral formulations (1 mg/mL of Angiopep peptide) was determined in the presence of 1 mg/25 mL of pepsin (diluted 41 times, pH=1.4), an enzyme present in gastric fluid, at 37° C. Table 5 provides the half-life (t1/2) for degradation of various Angiopep peptides.

In another series the test system is BBB. In words: In situ brain perfusion in mice with capillary depletion (transport across the BBB). The format is in vivo. As to conditions: for crossing of the BBB (overall conclusion): mouse, in vivo.
The test system of a further series is mice. In words: Induction of hypothermia (body temperature) after intravenous bolus. The format is in vivo. As to conditions: Table 9 grades.

Ends that are not written are not given here.

Sequence of pepsin (P0DJD8 63-388): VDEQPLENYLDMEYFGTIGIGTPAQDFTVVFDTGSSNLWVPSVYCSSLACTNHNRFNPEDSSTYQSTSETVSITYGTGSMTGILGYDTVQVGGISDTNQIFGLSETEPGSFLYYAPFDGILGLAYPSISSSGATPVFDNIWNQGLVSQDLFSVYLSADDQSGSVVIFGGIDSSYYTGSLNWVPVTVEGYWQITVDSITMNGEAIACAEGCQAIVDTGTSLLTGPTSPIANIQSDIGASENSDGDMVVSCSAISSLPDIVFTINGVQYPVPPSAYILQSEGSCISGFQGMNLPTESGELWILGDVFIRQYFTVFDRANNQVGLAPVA
Method for BBB: The initial transport was measured as a function of time.

Consider `N=C(N)NCCC[C@H](NC(=O)[C@@H](N)CCCCN)C(=O)N[C@@H](CC(N)=O)C(=O)N[C@@H](CC(N)=O)C(=O)N[C@@H](Cc1ccccc1)C(=O)N[C@@H](CCCCN)C(=O)N[C@@H](Cc1ccc(O)cc1)C(=O)N[C@@H](CS)C(N)=O` [Peptide P6], for which the half-life at 1 mg/mL in the series with pepsin was greater than 240 min.

Consider `C[C@@H](O)[C@H](N)C(=O)N[C@@H](Cc1ccccc1)C(=O)N[C@@H](Cc1ccccc1)C(=O)N[C@@H](Cc1ccc(O)cc1)C(=O)NCC(=O)NCC(=O)N[C@@H](CO)C(=O)N[C@H](CCCNC(=N)N)C(=O)NCC(=O)N[C@H](CCCCN)C(=O)N[C@H](CCCNC(=N)N)C(=O)N[C@@H](CC(N)=O)C(=O)N[C@@H](CC(N)=O)C(=O)N[C@@H](Cc1ccccc1)C(=O)N[C@@H](CCCCN)C(=O)N[C@H](C(=O)N[C@@H](CCC(=O)O)C(=O)N[C@@H](CCC(=O)O)C(=O)N[C@@H](Cc1ccc(O)cc1)C(=O)O)[C@@H](C)O` [Peptide 3D-An2], for which the half-life at 1 mg/mL in the series on pepsin stood at 60 min.

Take `C[C@@H](O)[C@H](NC(=O)[C@H](CCCCN)NC(=O)[C@H](Cc1ccccc1)NC(=O)[C@H](CC(N)=O)NC(=O)[C@H](CC(N)=O)NC(=O)[C@H](CCCNC(=N)N)NC(=O)[C@@H](N)CCCCN)C(=O)N[C@@H](CCC(=O)O)C(=O)N[C@@H](CCC(=O)O)C(=O)N[C@@H](Cc1ccc(O)cc1)C(=O)N[C@@H](CS)C(N)=O` [Peptide P5]: in the series on BBB, the “crossing of the BBB (overall conclusion)” value is “effectively cross the BBB”. Besides, the half-life at 1 mg/mL with pepsin stood at 24 min.

On to `C[C@@H](O)[C@H](NC(=O)[C@H](CCCCN)NC(=O)[C@@H](Cc1ccccc1)NC(=O)[C@H](CC(N)=O)NC(=O)[C@H](CC(N)=O)NC(=O)[C@@H](CCCNC(=N)N)NC(=O)[C@H](N)CCCCN)C(=O)N[C@@H](CCC(=O)O)C(=O)N[C@@H](CCC(=O)O)C(=O)N[C@@H](Cc1ccc(O)cc1)C(=O)N[C@@H](CS)C(N)=O` [Peptide P5a, D-Lys-D-Arg-Asn-Asn-D-Phe-Lys-Thr-Glu-Glu-Tyr-Cys], for which, in the series on pepsin, the half-life at 1 mg/mL was found to be 21 min.

With `C[C@@H](O)[C@H](N)C(=O)N[C@@H](Cc1ccccc1)C(=O)N[C@@H](Cc1ccccc1)C(=O)N[C@@H](Cc1ccc(O)cc1)C(=O)NCC(=O)NCC(=O)N[C@@H](CO)C(=O)N[C@@H](CCCNC(=N)N)C(=O)NCC(=O)N[C@@H](CCCCN)C(=O)N[C@@H](CCCNC(=N)N)C(=O)N[C@@H](CC(N)=O)C(=O)N[C@@H](CC(N)=O)C(=O)N[C@@H](Cc1ccccc1)C(=O)N[C@@H](CCCCN)C(=O)N[C@H](C(=O)N[C@@H](CCC(=O)O)C(=O)N[C@@H](CCC(=O)O)C(=O)N[C@@H](Cc1ccc(O)cc1)C(=O)O)[C@@H](C)O` [An2, T F F Y G G S R G K R N N F K T E E Y, reference compound], the half-life at 1 mg/mL in the series on pepsin was found to be 40 min.

`N=C(N)NCCC[C@@H](NC(=O)[C@H](N)CCCCN)C(=O)N[C@@H](CC(N)=O)C(=O)N[C@@H](CC(N)=O)C(=O)N[C@H](Cc1ccccc1)C(=O)N[C@@H](CCCCN)C(=O)N[C@@H](Cc1ccc(O)cc1)C(=O)N[C@@H](CS)C(N)=O` [Peptide P6a, D-Lys-D-Arg-Asn-Asn-D-Phe-Lys-Tyr-Cys]: the half-life at 1 mg/mL with pepsin is greater than 1080 min.

For “TFFYGGSRG K R N N F KTEEY E L Y E N K P R R P Y I L (TFFYGGSRGKRNNFKTEEYELYENKPRRPYIL) [An2-NT, fusion protein]”, the Hypothermia result with mice is listed as “✓✓✓”.

Turning to `CC[C@H](C)[C@H](NC(=O)[C@@H](Cc1ccc(O)cc1)NC(=O)[C@@H]1CCCN1C(=O)[C@H](CCCNC(=N)N)NC(=O)[C@H](CCCNC(=N)N)NC(=O)[C@H](CCCCNC(=O)CCCCCN1C(=O)CC(SC[C@H](NC(=O)[C@H](Cc2ccc(O)cc2)NC(=O)[C@H](CCC(=O)O)NC(=O)[C@H](CCC(=O)O)NC(=O)[C@@H](NC(=O)[C@H](CCCCN)NC(=O)[C@@H](Cc2ccccc2)NC(=O)[C@H](CC(N)=O)NC(=O)[C@H](CC(N)=O)NC(=O)[C@@H](CCCNC(=N)N)NC(=O)[C@H](N)CCCCN)[C@@H](C)O)C(N)=O)C1=O)NC(C)=O)C(=O)N[C@@H](CC(C)C)C(=O)O` (stereo partly shown) [Peptide P5a-NT1], in the series with BBB (in situ brain perfusion in mice, initial transport measured as a function of time), the brain uptake result is listed as “higher than for neurotensin (NT)”.

For FYGGSRGKRNNFKTEEYC-NH2 [Peptide P1], the “crossing of the BBB (overall conclusion)” value in the series on BBB is “effectively cross the BBB”.
